The source of these data is ChEMBL document CHEMBL4483862, “Open-source discovery of chemical leads for next-generation chemoprotective antimalarials” (2018).

For this assay, the system named is Plasmodium berghei. Description: Luciferase/luciferin-expressing antifolate-resistant parasites were used to infect a culture of HepG2 cells that were pre-incubated with compounds. Infected hepatocytes emit light due to the luciferase reaction. Assay results are presented as the percent inhibition of light emission compared to control. […]. Format: functional. Conditions: sporozoite; for IC90: read-out: LUCIFERASE INFECTION ASSAY - IC90.

The mark [1] stands for this setting: read-out: LUCIFERASE INFECTION ASSAY - IC50.

As a reminder, the IC50 is the midpoint of a concentration-inhibition curve. Usually IC90 stands for the point of the concentration-response curve where the effect stands at 90%. For the compound `CC(C)(C)C1CCc2[nH]c(=O)sc2C1` (stereo not given), the IC90 worked out at 1.31 µM. Further, the IC50 (HEPG2TOX_HILL_SLOPE 1.45, HEPG2TOX_R_SQUARED 0.907, PBLUC_HILL_SLOPE 17.6, PBLUC_R_SQUARED 0.512, read-out: LUCIFERASE INFECTION ASSAY - IC50) came to 1.16 µM.
As for `CN(C)c1nc2cc(C(=O)Nc3ccccc3OC(F)F)sc2n1-c1ccccc1`, the IC90 came out at 2.47 µM. The IC50 (HEPG2TOX_HILL_SLOPE 0.955, HEPG2TOX_R_SQUARED 0.898, PBLUC_HILL_SLOPE 1.96, PBLUC_R_SQUARED 0.521, read-out: LUCIFERASE INFECTION ASSAY - IC50) stood at 0.803 µM.
On to `CSCc1nc(=O)c2c(C)c(C(=O)NN3C(=O)NC(C)(c4ccccc4)C3=O)sc2[nH]1` (stereo not given), for which the IC90 is > 10 µM. For the same compound, the IC50 under setting [1] was > 10 µM.
In the case of `CN(c1ccccc1)c1ccc(CN2CCC3(CC2)C(=O)N(CCc2ccccc2)C(=O)N3C)cc1`, the IC90 turned out to be 3.1 µM. Moreover, where the note is “HEPG2TOX_HILL_SLOPE 3.73, HEPG2TOX_R_SQUARED 0.979, PBLUC_HILL_SLOPE 9.4, PBLUC_R_SQUARED 0.597, read-out: LUCIFERASE INFECTION ASSAY - IC50”, the IC50 turned out to be 2.46 µM.
As for `COc1cccc(/C=C(\c2nc3ccccc3[nH]2)c2nc3ccccc3s2)c1`, the IC90 is > 10 µM. Besides, the IC50 under setting [1] is > 10 µM.
On to `COc1ccc(C(=O)Nc2cccc(/C=C/C(=O)c3ccc(C4CCCCC4)cc3)c2)cc1`, for which the IC90 came to 9.2 µM. The IC50 under setting [1] was 7.51 µM.
Turning to `CC(=O)c1cccc(-c2cnc3ccc(-c4cccc(Cl)c4)nn23)c1`, the IC90 was found to be 8.63 µM. The IC50 (HEPG2TOX_HILL_SLOPE 0.743, HEPG2TOX_R_SQUARED 0.718, PBLUC_HILL_SLOPE 1.63, PBLUC_R_SQUARED 0.591, read-out: LUCIFERASE INFECTION ASSAY - IC50) was 2.24 µM.
In the case of `Cc1ccc(NC(=O)c2cccc(-c3ccc(O)cc3)c2)cc1Cl`, the IC90 worked out at 4.26 µM. Besides, the IC50 (HEPG2TOX_HILL_SLOPE 17.8, HEPG2TOX_R_SQUARED 0.895, PBLUC_HILL_SLOPE 28.1, PBLUC_R_SQUARED 0.516, read-out: LUCIFERASE INFECTION ASSAY - IC50) turned out to be 3.94 µM.
In the case of `COc1ccc(/C=C2\N=C(SCc3cn4ccsc4n3)N(c3cc(C)cc(C)c3)C2=O)cc1`, the IC90 is > 10 µM. For the same compound, for the setting “HEPG2TOX_HILL_SLOPE 2.87, HEPG2TOX_R_SQUARED 0.677, PBLUC_HILL_SLOPE 15.6, PBLUC_R_SQUARED 0.508, read-out: LUCIFERASE INFECTION ASSAY - IC50”, the IC50 stood at 9.65 µM.
Take `CCOC(=O)c1c(S(=O)(=O)Nc2ccc([N+](=O)[O-])cc2)c(-c2ccccc2)n(-c2ccccc2)c1C`: the IC90 is > 6.53 µM. Besides, for the setting “HEPG2TOX_HILL_SLOPE 0.2, HEPG2TOX_R_SQUARED 0.0818, PBLUC_HILL_SLOPE 2.97, PBLUC_R_SQUARED 0.542, read-out: LUCIFERASE INFECTION ASSAY - IC50”, the IC50 is > 6.53 µM.
On to `CCN1C(=O)N(Cc2cccc(OC)c2)C(=O)C12CCN(CC(c1ccccc1)c1ccccc1)CC2`, for which the IC90 was > 6.63 µM. Moreover, where the note is “PBLUC_HILL_SLOPE 15.1, PBLUC_R_SQUARED 0.228, read-out: LUCIFERASE INFECTION ASSAY - IC50”, the IC50 was 6.16 µM.
For `O=C(/C=C/c1ccc([N+](=O)[O-])s1)Nc1ccc(F)cc1F`, the IC90 was > 10 µM. For the same compound, the IC50 under setting [1] came out at 8.88 µM.
In the same order, the values of `COc1ccc(CCNc2ncnc3sc(C)cc23)cc1OC` are 2.92 µM and 0.791 µM.
For `Cc1nn(-c2ccccc2)c(C)c1C(=O)C(=O)NC(C)c1ccc(S(N)(=O)=O)cc1` (stereo not given) the same measures were > 10 µM and > 10 µM.
Consider `COc1cc(/C=C/C(=O)Nc2nc3c(s2)CC(C)CC3)cc(OC)c1` (stereo not given), for which the IC90 was > 10 µM. Under setting [1], the IC50 was > 10 µM.
For the compound `Clc1ccc2c(c1)C(Nc1ccc3nnnn3n1)CCS2` (stereo not given), the IC90 was > 10 µM. Under “HEPG2TOX_HILL_SLOPE 2.38, HEPG2TOX_R_SQUARED 0.171, read-out: LUCIFERASE INFECTION ASSAY - IC50”, the IC50 was > 10 µM.
As to `COc1ccc(-c2cnc3cnc(-c4ccc(N)nc4)cn23)cn1`, the IC90 amounted to 9.27 µM. In addition, where the note is “PBLUC_HILL_SLOPE 29.9, PBLUC_R_SQUARED 0.596, read-out: LUCIFERASE INFECTION ASSAY - IC50”, the IC50 was determined as 8.62 µM.
Consider `CCOC(=O)c1cnc(NNC(=O)c2ccc(Cl)cc2Cl)nc1C(F)(F)F`, for which the IC90 was > 7.8 µM. Also, the IC50 under setting [1] is > 7.8 µM.
With `Cc1ccc(N2C(=O)C=CC2=O)cc1Cl`, the IC90 was > 14.9 µM. Moreover, where the note is “FFLUC_HILL_SLOPE 79.3, FFLUC_R_SQUARED 0.497, PBLUC_HILL_SLOPE 1.92, PBLUC_R_SQUARED 0.35, read-out: LUCIFERASE INFECTION ASSAY - IC50”, the half-inhibitory concentration (IC50) was determined as 6.38 µM.
Turning to `O=C1C(=O)N(Cc2cc3c(cc2Cl)OCO3)c2ccc(Br)cc21`, the IC90 is > 8.36 µM. In addition, the IC50 (FFLUC_HILL_SLOPE 13.4, FFLUC_R_SQUARED 0.714, HEPG2TOX_HILL_SLOPE 8.11, HEPG2TOX_R_SQUARED 0.359, PBLUC_HILL_SLOPE 6.2, PBLUC_R_SQUARED 0.151, read-out: LUCIFERASE INFECTION ASSAY - IC50) was determined as 7.48 µM.
For `CC(Sc1nnc(-c2ccc(C(C)(C)C)cc2)n1Cc1ccco1)C(=O)Nc1ccc(Cl)cn1` (stereo not given), the IC90 is > 10 µM. For the same compound, the IC50 under setting [1] was > 10 µM.
For the compound `CC(=O)OCc1ccccc1Sc1ccccc1C(=O)Nc1ccccc1`, the IC90 was > 8.74 µM. Besides, for the setting “FFLUC_HILL_SLOPE 9.22, FFLUC_R_SQUARED 0.715, read-out: LUCIFERASE INFECTION ASSAY - IC50”, the IC50 was > 8.74 µM.
On to `CC(C)c1ccc(/C=N/NC(=O)CC#N)cc1`, for which the IC90 was > 14.4 µM. In addition, the IC50 under setting [1] was > 14.4 µM.
As for `CSc1ccc(Cl)c(C(=O)OCC(=O)N2CCN(C(=O)c3ccco3)CC2)c1`, the IC90 is > 10 µM. For the same compound, the IC50 under setting [1] is > 10 µM.
Take `Cc1cnc(NC(=O)Cc2ccc3c(c2)CCC(C)(C)O3)s1`: the IC90 was found to be 4.6 µM. Besides, for the setting “PBLUC_HILL_SLOPE 9.94, PBLUC_R_SQUARED 0.592, read-out: LUCIFERASE INFECTION ASSAY - IC50”, the IC50 amounted to 3.68 µM.
As to `COc1cc(/C=N/Nc2c(Cl)c(Cl)nc(C(=O)O)c2Cl)cc(OC)c1OC`, the IC90 is > 10 µM. Also, where the note is “HEPG2TOX_HILL_SLOPE 0.214, HEPG2TOX_R_SQUARED 0.0951, read-out: LUCIFERASE INFECTION ASSAY - IC50”, the IC50 is > 10 µM.
As for `O=C(Nc1cccc([N+](=O)[O-])c1)c1[nH]nc2ccccc12`, the IC90 worked out at 2.96 µM. The IC50 (FFLUC_HILL_SLOPE 1.37, FFLUC_R_SQUARED 0.513, PBLUC_HILL_SLOPE 0.728, PBLUC_R_SQUARED 0.84, read-out: LUCIFERASE INFECTION ASSAY - IC50) stood at 0.145 µM.
`O=C(CCc1c[nH]c2ccccc12)Nc1ccc(N2CCc3sccc3C2)nc1`: the IC90 is > 10 µM. In addition, the IC50 under setting [1] stood at 8.67 µM.
In the same order, the values of `COc1ccc(-c2cnc3sc(NCCc4ccc(S(N)(=O)=O)cc4)nn23)cn1` are > 7.67 µM and > 7.67 µM.
As to `COc1cc(/C=C/C(=O)c2ccc(C#N)cc2)cc(Br)c1OCC(=O)N(C)C`, the IC90 was > 10 µM. Further, the IC50 (PBLUC_HILL_SLOPE 20.1, PBLUC_R_SQUARED 0.243, read-out: LUCIFERASE INFECTION ASSAY - IC50) is 9.62 µM.
`CC(C)n1ncc2c(C(=O)NCCCn3ccc4ccccc43)cc(C3CC3)nc21`: the IC90 is > 10 µM. Under setting [1], the IC50 is > 10 µM.
`CCc1ccc(S(=O)(=O)N2[C@@H]3CC[C@@H](C3)[C@H]2c2nc3c(OC(C)C)cccc3[nH]2)cc1`: the IC90 is > 10 µM. In addition, for the setting “HEPG2TOX_HILL_SLOPE 3.46, HEPG2TOX_R_SQUARED 0.87, PBLUC_HILL_SLOPE 16.2, PBLUC_R_SQUARED 0.535, read-out: LUCIFERASE INFECTION ASSAY - IC50”, the IC50 was determined as 9.38 µM.
Take `O=C(NC1=C(Nc2ccc3c(c2)OCCO3)C(=O)c2ccccc2C1=O)c1ccc(Cl)cc1`: the IC90 was > 10 µM. Where the note is “FFLUC_HILL_SLOPE 16.8, FFLUC_R_SQUARED 0.568, PBLUC_HILL_SLOPE 3.91, PBLUC_R_SQUARED 0.215, read-out: LUCIFERASE INFECTION ASSAY - IC50”, the IC50 was determined as 6.65 µM.
`CCOc1ccccc1NC(=O)Cc1nc2nc(C)cc(C)n2n1`: the IC90 is > 10.1 µM. Further, the IC50 under setting [1] is > 10.1 µM.
As to `C/C(c1cccs1)=[N+](/[O-])C(C)/C(=N/O)c1ccco1` (stereo not given), the IC90 is > 10 µM. For the same compound, under setting [1], the IC50 is > 10 µM.
Take `O=C(Nc1cccc(C(F)(F)F)c1)n1cc(-c2ccccn2)c(N2CCOCC2)n1`: the IC90 is > 7.91 µM. The IC50 (PBLUC_HILL_SLOPE 5.81, PBLUC_R_SQUARED 0.476, read-out: LUCIFERASE INFECTION ASSAY - IC50) was found to be 5.62 µM.
For the compound `Cc1cccc(C)c1NC(=O)Nc1cccn(Cc2ccc(Cl)cc2)c1=O`, the IC90 is > 8.64 µM. Further, the IC50 (PBLUC_HILL_SLOPE 2.91, PBLUC_R_SQUARED 0.157, read-out: LUCIFERASE INFECTION ASSAY - IC50) was 7.92 µM.
For `Clc1ccc2c(NCc3ccc(N4CCOCC4)nc3)ncnc2c1`, the IC90 is > 10 µM. The IC50 under setting [1] is > 10 µM.
On to `CC(Sc1nc2ccccc2c(=O)n1CCN(C(C)C)C(C)C)C(N)=O` (stereo not given), for which the IC90 was > 10 µM. Also, under “PBLUC_HILL_SLOPE 1.51, PBLUC_R_SQUARED 0.457, read-out: LUCIFERASE INFECTION ASSAY - IC50”, the IC50 was 6.73 µM.
Regarding `COc1ccc2nc(C)cc(NCc3cccc(C(F)(F)F)c3)c2c1`, the IC90 worked out at 3.24 µM. Also, for the setting “PBLUC_HILL_SLOPE 17.2, PBLUC_R_SQUARED 0.454, read-out: LUCIFERASE INFECTION ASSAY - IC50”, the IC50 came to 2.85 µM.
